# Reference: patent publication US20130071936A1, “FRET-BASED ZINC(II) ION INDICATOR” (The Florida State University Research Foundation, Inc., priority 2011, published 2013)
# Key:
# [1] = Fluorescence titration with ZnCl2 in aqueous/organic mixed solvent (1:9 MOPS buffer pH 7.2/CH3CN); type: binding; conditions: λex 400 nm
# Protocol: FIG. 9 is a graph depicting emission spectra for the titration of zinc(II) ion indicator (4) (2.5 μM) with ZnCl2 (0-22 μM) in water-CH3CN (1:9) mixture (MOPES buffer, 10 mM, pH=7.2, λex=400 nm).
# The titration experiments using zinc(II) ion indicator (4) were also carried out in an aqueous/organic mixed solvent (1:9 MOPS buffer (pH 7.2)/CH3CN). […] (FIG. 9). Comparing to the observations in CH3CN, the fluorescence is rather dim. The loss of fluorescence can be explained by the hydrogen bonding interaction between the protic solvent and the carbonyl groups on NDI, which provides a non-radiative deactivation pathway. See F. Würthner, S. Ahmed, C. Thalacker and T. Debaerdemaeker, Chem. Eur. J., 2002, 8, 4742. […] By extension, the fluorescence of zinc(II) ion indicators (4) and (5) would not be affected by the fluctuations of pH within the physiological range.
# [2] = test system: mitochondria of HeLa (S3) cells transfected with mCerulean3 TOMM-20; assay: Colocalization by confocal fluorescence microscopy with mCerulean3 TOMM-20; type: cell-based
# Protocol: FIGS. 13A through 13F are confocal fluorescence images of living HeLa (S3) cells transfected with mCerulean3 TOMM-20 that were incubated with zinc(II) ion indicator (5) (1.8 μM, A-C) and zinc(II) ion indicator (4) (6.0 μM, D-F) for 30 min. FIGS. 13A (zinc(II) ion indicator (5)) and 13D (zinc(II) ion indicator (4)) depict the green channel, λex 405 nm, λem 425-475 nm. FIGS. 13B (zinc(II) ion indicator (5)) and 13E (zinc(II) ion indicator (4)) depict the red channel, λex 543 nm, λem 580-680 nm. FIGS. 13C (zinc(II) ion indicator (5)) and 13F (zinc(II) ion indicator (4)) depict the merged image. Scale bar: 10 μm.
# FIGS. 14A through 14F are confocal fluorescence images of live HeLa (S3) cells transfected with mCer3 TOMM20 that were incubated with FRET acceptor compound (3) (9.0 μM, A-C) and FRET acceptor compound (2) (52 μM, D-F) for 30 min. FIGS. 14A (FRET acceptor compound (3)) and 14D (FRET acceptor compound (2)) depict the green channel, λex 405 nm, λem 425-475 nm. FIGS. 14B (FRET acceptor compound (3)) and […] (FRET acceptor compound (2)) depict the red channel, λex 543 nm, λem 580-680 nm. FIGS. 14C (FRET acceptor compound (3)) and […] (FRET acceptor compound (2)) depict the merged image. Scale bar: 10 μm.
# The colocalization properties of red-emitting compounds (2-5) were studied using HeLa (S3) cells transfected with mCerulean3 TOMM-20, a cyan fluorescent protein (CFP) fused with a mitochondrial targeting sequence whose emission is shown in the green channel. See FIG. 13A for emission spectrum from cells incubated with TPP-containing zinc(II) ion indicator (5), and see FIG. 13D for emission spectrum from cells incubated with zinc(II) ion indicator (4). […] The overall intracellular fluorescence intensity from zinc(II) ion indicator (4) is low, which is consistent with the observed weak fluorescence of the NDI fluorophore in aqueous solutions.
# The localization properties of (2-5) were determined via costaining experiments using mCerulean3 TOMM-20, a mitochondrial-specific fusion of the cyan fluorescent protein (CFP) mCerulean3. mCerulean3 is a bright monomeric FP with an emission maximum of 475 nm. HeLa S3 cells were seeded onto Bioptechs Delta-T dishes 48 h prior to experimentation, then transfected about 24 h prior to loading the indicator using an Effectene Transfection Reagent Kit (Qiagen) and 1 μg of DNA. A 1:1 mixture of Dulbecco's modified Eagle's medium and Ham's F-12 (Invitrogen) supplemented with 12.5% fetal bovine serum was used as the culture medium. On the day of experimentation cells were rinsed twice with media and incubated with indicator 5 (1.8 μM) for 30 min. Prior to imaging cells were again rinsed twice with media, then provided with 1 mL of fresh media.
# All cells were imaged using an Olympus Fluoview FV1000 confocal laser scanning microscope with an Olympus PLAPO 60× oil-immersion objective (NA=1.4). During experimentation cells were maintained at 37° C. and 5.0% CO2 using a Bioptechs Delta T4 Culture Dish Controller. Individual cells were imaged sequentially in two channels, using a 543 nm Helium-Neon laser line to excite the indicator and a 405 nm diode laser line to excite the FP. Cells were selected by the quality of FP expression, as the indicators tended to load homogenously into the cells. All data was collected using FluoView Software (Olympus). Laser power and detection settings were optimized for each image to fill LUTs. A pinhole size of 200 μm was used for each image. […]
compound,measurement,setting,value
COCCCNc1cc2c3c(c(NCCOc4ccc(/C=C/c5ccc(-c6ccc(COCCOCCOC)cn6)nc5)cc4)cc4c3c1C(=O)N(CCCOC)C4=O)C(=O)N(CCCOC)C2=O [Compound (4)],fluorescence enhancement on increasing [Zn^2+],[1],3 fold
same,intracellular appearance,"[2]; 6.0 μM, 30 min",forms particulates intracellularly
same,colocalization with mitochondrial CFP (mCerulean3 TOMM-20),"[2]; 30 min incubation, (5) 1.8 μM, (4) 6.0 μM, (3) 9.0 μM, (2) 52 μM",poor colocalization with the CFP
same,overall intracellular fluorescence intensity,"[2]; red channel λex 543 nm, λem 580-680 nm",low
